Results as given in US5424451A, “Process for preparing aminoalkylcarbamic esters of eseroline” (priority 1992, dated 1995).
Where two headings read alike, the source gives them in different places.

Tests used:
patients = conditions: prior art, cited from earlier work; for Clinical effects in patients (in words): mental diseases / Alzheimer's disease
acetylcholinesterase = conditions: cited from earlier work
in vivo = conditions: rat, po
[1] = prior art; cited from earlier work
[2] = target: T1, acetylcholinesterase from electric eel (Electrophorus electricus, UniProt O42275); test: biochemical
T1 construct: purchased Sigma Chemical; host or cells: electric eel
T1 sequence (O42275 24-633): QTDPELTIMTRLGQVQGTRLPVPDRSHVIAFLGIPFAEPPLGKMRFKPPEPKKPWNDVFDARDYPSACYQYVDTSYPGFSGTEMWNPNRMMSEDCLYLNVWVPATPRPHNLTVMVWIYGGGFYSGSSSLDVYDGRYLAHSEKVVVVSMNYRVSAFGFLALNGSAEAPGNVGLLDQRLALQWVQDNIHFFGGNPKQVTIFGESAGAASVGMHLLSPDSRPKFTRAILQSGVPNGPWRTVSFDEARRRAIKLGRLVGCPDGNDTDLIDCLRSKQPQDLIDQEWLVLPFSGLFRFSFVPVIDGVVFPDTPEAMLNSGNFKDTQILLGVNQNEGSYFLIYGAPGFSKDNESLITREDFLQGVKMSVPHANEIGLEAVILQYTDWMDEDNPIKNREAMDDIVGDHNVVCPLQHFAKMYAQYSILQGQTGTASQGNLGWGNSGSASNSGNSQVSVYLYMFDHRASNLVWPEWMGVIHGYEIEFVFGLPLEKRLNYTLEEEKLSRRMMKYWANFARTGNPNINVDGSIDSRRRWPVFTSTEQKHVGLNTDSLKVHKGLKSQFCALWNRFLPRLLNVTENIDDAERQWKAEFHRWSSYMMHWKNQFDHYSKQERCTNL

[3] = cited from earlier work
[4] = target: T2, acetylcholinesterase from human red blood cells (Homo sapiens, UniProt P22303); test: Inhibition of acetylcholinesterase from human erythrocyte (Ellman colorimetric method); assay type: biochemical
T2 construct: purchased Sigma Chemical; host or cells: human erythrocyte
T2 sequence (P22303 32-617 isoform P22303-2 limits assumed): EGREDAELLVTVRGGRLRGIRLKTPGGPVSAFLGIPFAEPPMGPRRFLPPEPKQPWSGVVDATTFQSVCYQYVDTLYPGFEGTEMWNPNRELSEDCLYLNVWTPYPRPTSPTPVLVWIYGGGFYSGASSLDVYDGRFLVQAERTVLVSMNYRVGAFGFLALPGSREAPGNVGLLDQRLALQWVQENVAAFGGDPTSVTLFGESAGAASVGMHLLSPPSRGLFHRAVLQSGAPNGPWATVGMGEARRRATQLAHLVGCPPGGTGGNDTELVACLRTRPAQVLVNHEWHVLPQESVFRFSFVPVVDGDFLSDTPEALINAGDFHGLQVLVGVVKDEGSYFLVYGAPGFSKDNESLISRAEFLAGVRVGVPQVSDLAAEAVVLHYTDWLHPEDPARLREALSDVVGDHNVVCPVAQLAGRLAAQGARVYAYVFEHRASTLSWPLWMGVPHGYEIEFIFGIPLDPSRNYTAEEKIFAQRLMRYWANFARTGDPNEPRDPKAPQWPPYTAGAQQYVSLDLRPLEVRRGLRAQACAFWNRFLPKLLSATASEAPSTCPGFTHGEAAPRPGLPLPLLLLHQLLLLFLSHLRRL

[5] = target: T3, butyrylcholinesterase from human serum (Homo sapiens, UniProt P06276); test: Inhibition of butyrylcholinesterase from human serum (Ellman colorimetric method); assay type: biochemical
T3 construct: purchased Sigma Chemical; host or cells: human serum
T3 sequence (P06276 29-602): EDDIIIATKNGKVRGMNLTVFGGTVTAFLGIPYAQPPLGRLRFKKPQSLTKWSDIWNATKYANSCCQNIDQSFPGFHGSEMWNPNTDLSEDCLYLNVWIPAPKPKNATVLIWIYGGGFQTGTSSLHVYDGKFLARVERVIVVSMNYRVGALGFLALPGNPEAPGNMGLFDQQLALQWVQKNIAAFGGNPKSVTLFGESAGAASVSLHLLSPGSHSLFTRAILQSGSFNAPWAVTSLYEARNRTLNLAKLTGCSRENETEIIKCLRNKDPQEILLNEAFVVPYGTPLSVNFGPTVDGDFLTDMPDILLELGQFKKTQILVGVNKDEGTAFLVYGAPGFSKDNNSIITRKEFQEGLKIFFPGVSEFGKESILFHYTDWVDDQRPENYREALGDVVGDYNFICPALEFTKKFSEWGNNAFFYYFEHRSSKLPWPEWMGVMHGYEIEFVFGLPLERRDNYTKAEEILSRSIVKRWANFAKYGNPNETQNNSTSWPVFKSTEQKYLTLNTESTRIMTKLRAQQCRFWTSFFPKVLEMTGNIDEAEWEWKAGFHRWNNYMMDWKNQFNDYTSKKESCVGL

[6] = target: T4, acetylcholinesterase from homogenate of in toto rat brain (Rattus norvegicus, UniProt P37136); test: Inhibition of acetylcholinesterase from rat brain homogenate; assay type: biochemical; conditions: contact time 10'; read-out: Cholinesterase Inhibition IC50, AChE rat brain
T4 construct: acetylcholinesterase from homogenate of in toto rat brain; from tissue; host or cells: rat whole brain homogenate
T4 sequence (P37136 32-614): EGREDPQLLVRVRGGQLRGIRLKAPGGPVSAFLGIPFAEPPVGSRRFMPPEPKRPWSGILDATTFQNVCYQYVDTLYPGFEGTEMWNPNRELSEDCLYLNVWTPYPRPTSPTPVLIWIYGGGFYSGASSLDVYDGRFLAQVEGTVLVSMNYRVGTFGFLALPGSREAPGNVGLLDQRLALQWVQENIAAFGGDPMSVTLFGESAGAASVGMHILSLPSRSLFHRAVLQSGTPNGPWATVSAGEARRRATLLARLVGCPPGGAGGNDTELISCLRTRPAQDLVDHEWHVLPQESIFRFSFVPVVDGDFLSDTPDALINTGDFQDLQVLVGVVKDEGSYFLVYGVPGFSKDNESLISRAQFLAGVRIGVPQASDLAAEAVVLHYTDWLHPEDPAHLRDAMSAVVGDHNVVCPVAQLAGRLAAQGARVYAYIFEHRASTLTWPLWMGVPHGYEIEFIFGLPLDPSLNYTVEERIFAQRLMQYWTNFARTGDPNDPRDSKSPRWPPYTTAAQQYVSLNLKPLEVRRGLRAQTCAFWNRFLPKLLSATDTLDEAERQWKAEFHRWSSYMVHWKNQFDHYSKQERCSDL
Text: The compounds prepared as per the Examples reported above and several other compounds under the present invention (Table 1) were pharmacologically tested with a view to determining their inhibitory effect on acetylcholinesterase and butyrylcholinesterase activity. The used method had been developed by Ellman et al. (Ellman, G. L., Courtney, K. D., Andres, V., Featherstone, R. M.: "A New and Rapid Colorimetric Determination of Acetylcholinesterase Activity", Biochem. Pharm. 7, 88, 1961).
AChE rat brain: acetylcholinesterase from homogenate of in toto rat brain
t: contact time (minutes)
IC50 M: median inhibitory molar concentration

[7] = Cholinesterase Inhibition IC50, AChE E.eel, contact time 10'
[8] = Cholinesterase Inhibition IC50, AChE hRBC, contact time 30'
[9] = Cholinesterase Inhibition IC50, AChE hRBC, contact time 60'
[10] = contact time 10', read-out: Cholinesterase Inhibition IC50, AChE hRBC

Compound	Acetylcholinesterase inhibition, prior art (in words) (acetylcholinesterase)	IC50 [5] [nM]	IC50 [2, 7] [nM]	IC50 [6] [nM]	IC50 [4, 8] [nM]	IC50 [4, 10] [nM]	further results
CNC(=O)Oc1ccc2c(c1)[C@]1(C)CCN(C)[C@@H]1N2C [ESERINE, physostigmine]	potent natural inhibitor of acetylcholinesterase	–	–	–	–	–	Clinical effects in patients (in words) (patients): beneficial effects on patients affected by mental diseases; LD50 (in vivo): 4.5 mg/kg; Pharmacokinetic properties (in words) [1]: unfavourable pharmacokinetic properties
CCCCCCCNC(=O)Oc1ccc2c(c1)[C@]1(C)CCN(C)[C@@H]1N2C [MF 201, heptylcarbamic ester of eseroline, reference compound]	less potent acetylcholinesterase inhibitor than physostigmine	40	–	–	–	–	Neutropenia in patients (in words) (patients; clinical pilot test, Alzheimer's disease): neutropenia phenomena in some, though very few, patients; Clinical effects in patients (in words) (patients): good results in a clinical pilot test on patients affected by Alzheimer's disease; IC50 ([2]; contact time 10', read-out: Cholinesterase Inhibition IC50, AChE E.eel): 550 nM; IC50 ([2]; contact time 30', read-out: Cholinesterase Inhibition IC50, AChE E.eel): 410 nM; IC50 ([2]; contact time 60', read-out: Cholinesterase Inhibition IC50, AChE E.eel): 440 nM; Side effects, prior art (in words) [3]: reduced side effects; IC50 ([4]; read-out: Cholinesterase Inhibition IC50, AChE hRBC): 290 nM; Pharmacokinetic properties (in words) [1]: better pharmacokinetic properties
CN1CC[C@@]2(C)c3cc(OC(=O)N4CCOCC4)ccc3N(C)[C@@H]12 [MF 215, reference compound]	low acetylcholinesterase activity depression	–	–	–	–	–	Activity compared with the compounds of this invention (in words) ([4]; compared with the compounds of this invention): much lower activity; IC50 ([4]; read-out: Cholinesterase Inhibition IC50, AChE hRBC, contact time 10'): 19000 nM; IC50 ([4]; read-out: Cholinesterase Inhibition IC50, AChE hRBC, contact time 30'): 12000 nM; IC50 ([4]; read-out: Cholinesterase Inhibition IC50, AChE hRBC, contact time 60'): 16000 nM; IC50 ([5]; read-out: Cholinesterase Inhibition IC50, BuChE hserum, contact time 10'): 870000 nM
CN1CC[C@@]2(C)c3cc(OC(=O)NCCCCCCCCN4CCOCC4)ccc3N(C)[C@@H]12 [MF 217, N-morpholinyloctylcarbamoyleseroline]	–	170	330	880	76	–	LD50 (in vivo): 23 mg/kg; IC50 ([4]; Cholinesterase Inhibition IC50, AChE hRBC, contact time 10'): 100 nM; IC50 [4, 9]: 63 nM; Activity against human red blood cells acetylcholinesterase (in words) ([4]; Table 2 results): Particularly active
CN1CC[C@@]2(C)c3cc(OC(=O)NCCCCCCCN4CCOCC4)ccc3N(C)[C@@H]12 [MF 224, N-morpholinylheptylcarbamoyleseroline]	–	300	1600	4100	170	380	–
CN1CC[C@@]2(C)c3cc(OC(=O)NCCCCCN4CCOCC4)ccc3N(C)[C@@H]12 [MF 225, N-morpholinylpentylcarbamoyleseroline]	–	–	330000	500000	2200	7600	–
CN1CC[C@@]2(C)c3cc(OC(=O)NCCCCCCN4CCOCC4)ccc3N(C)[C@@H]12 [MF 227, N-morpholinylhexylcarbamoyleseroline]	–	100	12000	8200	380	930	–
CN1CC[C@@]2(C)c3cc(OC(=O)NCCCCCCCCCCCCN4CCOCC4)ccc3N(C)[C@@H]12 [MF 228, N-morpholinyldodecylcarbamoyleseroline]	–	100	70	380	60	70	IC50 [4, 9]: 30 nM
